From patent publication US20170202936A1, “Identification, Optimization And Use Of Cryptic HLA-B7 Epitopes For Immunotherapy” (VAXON BIOTECH, priority 2006, published 2017)
“Also recorded” adds a separate entry of the source. No end group written: not given here.

Columns and labels:
[1] = target: T1, HLA-B*0702 (Homo sapiens, UniProt P01889); experiment: Measurement of peptide relative affinity to HLA-B*0702 (T2-B7 cells, ME-1 mAb staining); format: binding; conditions: for RA (relative affinity for HLA-B*0702): T2-B7 cells, 16 hours 37° C., ratio of concentrations inducing 20% HLA-B*0702 expression vs reference peptide CMV265-274; for RA: class symbols, Table IV
T1 construct: expressed in transfected cells; host or cells: human T2 cells transfected with HLA-B*0702 (T2-B7)
Description: The affinity of a peptide for HLA-B*0702 can be determined by methods known in the art, for instance by the assay described by Rohrlich et al., 2003. Results are expressed as relative affinity (RA) when compared to a reference peptide. […] Peptides with RA greater than 10 are therefore considered to be cryptic peptides (or epitopes).
Measurement of Peptide Relative Affinity to HLA-B*0702. The protocol used has been described previously (Rohrlich et al., 2003). Briefly, T2-B7 cells were incubated at 37° C. for 16 hours with peptides concentrations ranging from 100 μM to 0.1 μM, and then stained with ME-1 monoclonal antibody (mAb) to quantify the surface expression of HLA-B*0702. For each peptide concentration, the HLA-B*0702 specific staining was calculated as the percentage of staining obtained with 100 μM of the reference peptide CMV265-274 (R10V; […], SEQ ID NO: 9). The relative affinity (RA) was determined as: RA=(Concentration of each peptide that induces 20% of HLA-B*0702-expression/Concentration of the reference peptide that induces 20% of HLA-B*0702 expression).

[2] = test system: HLA-B*0702 transgenic mice; experiment: CTL induction in vivo in HLA-B*0702 transgenic mice (immunogenicity, cytotoxic assay on peptide-loaded RMA-B7 targets); set-up: key: + for immunogenicity or native peptide cross recognition means that the peptide induced a specific response in at least one HLA-B*0702 transgenic mouse, able to recognized the corresponding native peptide; conditions: Table V
Description: (§1) CTL Induction in vivo in HLA-B*0702 Transgenic Mice. Mice were injected subcutaneously with 100 μg of peptide emulsified in Incomplete Freund's Adjuvant (IFA) in the presence of 150 μg of the I-A^b restricted HBVcore128 T helper epitope ([…], SEQ ID NO: 10). After 11 days, 5×10^7 spleen cells were stimulated in vitro with peptide (10 μM). On day 6 of culture, the bulk responder populations were tested for specific cytotoxicity.
(§2) Cytotoxic assay. Targets were labelled with 100 μCi of Cr^51 for 60 min, plated in 96-well V-bottomed plates (3×10^3 cell/well in 100 μL of RPMI 1640 medium) and, when necessary, pulsed with peptides (1 μM) at 37° C. for 2 hours. Effectors were then added in the wells and incubated at 37° C. for 4 hours. Percentage of specific lysis was determined as: % Lysis=(Experimental Release−Spontaneous Release)/(Maximal Release−Spontaneous Release)×100.
(§3) HLA-B7 transgenic mice were vaccinated with the selected peptides, and eleven days later, their spleen cells were in vitro stimulated with the peptide.

[3] = test system: HLA-B*0702 transgenic mice; experiment: as above; set-up: key: +: means that a specific immunoresponse was generated at least one HLA-B*0702 transgenic mice; conditions: Table IV
Description: as §1, §2, §3

[4] = test system: HLA-B*0702 transgenic mice; experiment: as above; set-up: key to Corresponding native peptide cross-reconnaissance: + for immunogenicity or native peptide cross recognition means that the peptide induced a specific response in at least one HLA-B*0702 transgenic mouse, able to recognized the corresponding native peptide; conditions: for Corresponding native peptide cross-reconnaissance: CTL induced in HLA-B*0702 transgenic mice; for Immunogenicity: specific CTL immune response (in words) / Recognition of the native peptide by CTL generated with the optimized peptide (in words): HLA-B*0702 transgenic mice
Description: as §1, §2, §3

[5] = test system: SK-MES-1, HBL-100, SW-480 and HSS human tumor cell lines; experiment: Cytotoxicity of peptide-induced human CTL against human tumor cell lines; format: cell-based; conditions: one responding donor
Description: Cells. HLA-B*0702 transfected murine RMA-B7 and human T2-B7 cells were previously described (Rohrlich et al., 2003). COS-7 and WEHI-164 clone 13 cells were provided by F. Jotereau (INSERM 463, Nantes, France). The HLA-B*0702 positive SK-MES-1 (lung cancer), HBL-100 (breast cancer), and the HLA-B*0702 negative SW-480 (colon cancer) and HSS (myeloma) cell lines were used as targets of human CTL. All cell lines were grown in FCS 10% supplemented RPMI1640 culture medium.
(§4) Generation of CTL from human PBMC. PBMC were collected by leukapheresis from healthy HLA-B*0702 volunteers. Dendritic cells (DC) were produced from adherent cells cultured for seven days (2×10^6 cells/ml) in the presence of 500 IU/ml GM-CSF and 500 IU/ml IL-4 (R&D Systems, Minneapolis, Minn.) in complete medium (RPMI-1640 supplemented with 10% heat inactivated human AB serum, […] L-Glutamine and antibiotics). On day seven, DC were pulsed with 10 μM peptides for 2 hrs; maturation agents Poly I:C (Sigma, Oakville, Canada) at 100 ng/ml and anti-CD40 mAb (clone G28-5, ATCC, Manassas, Va.) at 2 μg/ml were added in the culture and DCs were incubated at 37° C. overnight or up to 48 hours. Mature DC were then irradiated (3500 rads). […]
(§5) Cytotoxic assay. […] Percentage of specific lysis was determined as: % Lysis=(Experimental Release−Spontaneous Release)/(Maximal Release−Spontaneous Release)×100.

[6] = test system: T2-B7 targets; experiment: Generation of CTL from human PBMC of healthy donors, cytotoxicity against peptide-loaded T2-B7 targets; format: cell-based; conditions: one responding donor
Description: as §4, with “rads). CD8+ cells were purified by positive selection with CD8 MicroBeads (Miltenyi Biotec, Auburn, Calif.) according to the manufacturer's instructions. 2×10^5 CD8^+ cells+6×10^4 CD8^− cells were stimulated with 2×10^4 peptide pulsed DC in complete culture medium supplemented with 1000 IU/ml IL-6 and 5 IU/ml IL-12 (R&D Systems, Minneapolis, Minn.) in round-bottomed 96 well plates.” for “rads).”
as §5

Sequence: APEEISSMVL (HSP70_115A1 optimized peptide) [Hsp70 115A1]
- RA (relative affinity for HLA-B*0702) [1]: >10

Sequence: APKANKEIL (Her-2/neu760A1 optimized peptide derived from the cryptic peptide of SEQ ID NO3) [Her2/neu760A1]
- Immunogenicity [2]: +
- Immunogenicity [3]: +
- Corresponding native peptide cross-reconnaissance [4]: +

Sequence: APKHSDCLA (Her-2/neu246A1 optimized peptide derived from the cryptic peptide of SEQ ID NO4) [Her2/neu246A1]
- Immunogenicity [2]: +
- Immunogenicity [3]: +
- Corresponding native peptide cross-reconnaissance [4]: +

Sequence: APLSLGLET (Hsp70 397 antigen peptide)
- Affinity for HLA-B*0702 (in words) [1]: low affinity
- RA (relative affinity for HLA-B*0702) [1]: >10
- Immunogenicity: specific CTL immune response (in words) [4]: Only the high affinity TERT4 was immunogenic

Sequence: APRALVETL (MAGE-A antigen peptide)
- RA [1]: + (+ = 1 < RA < 10)
- Immunogenicity [3]: +

Sequence: APRASSPLL (a HLA-B*0702 restricted peptide)
- Immunogenicity [3]: +

Sequence: APRCRAVRSL [TERT4]
- Cytotoxicity of human CTL against human tumor cell lines [5]: killed the HLA-B*0702 TERT+SK-MES-1 and HBL-100 but not the HLA-B*0702-TERT+SW-480 and HSS human tumor cell lines
- Cytotoxicity of human CTL against peptide-loaded T2-B7 targets [6]: killed T2-B7 targets presenting TERT4 but not T2-B7 cells presenting the irrelevant Nef peptide

Sequence: APREISSMVL (HSP70_115A1R3 optimized peptide) [Hsp70115A1R3]
- Affinity for HLA-B*0702 (in words) [1]: strong affinity
- RA [1]: + (+ = 1 < RA < 10)
- Immunogenicity [3]: +
- Immunogenicity: specific CTL immune response (in words) [4]: induced an immune response in the majority of vaccinated mice
- Recognition of the native peptide by CTL generated with the optimized peptide (in words) [4]: recognized the optimized peptide but not the corresponding native peptide

Sequence: APREYVNAL (Her-2/neu)
- RA [1]: + (+ = 1 < RA < 10)
- Immunogenicity [3]: +

Sequence: APRGVPQIEL (a HLA-B*0702 restricted peptide)
- Immunogenicity [3]: +

Sequence: APRMHCAVDL (EphA2)
- RA [1]: ++ (++ = RA < 1)
- Immunogenicity [3]: +

Sequence: APRMPEAAL (a HLA-B*0702 restricted peptide)
- Immunogenicity [3]: +

Sequence: APRPWTPCL (a HLA-B*0702 restricted peptide)
- RA [1]: + (+ = 1 < RA < 10)
- Immunogenicity [3]: +

Sequence: APRQLGREL (a HLA-B*0702 restricted peptide)
- Immunogenicity [3]: +

Sequence: APRRRLGCEL (TERT antigen peptide)
- RA [1]: + (+ = 1 < RA < 10)
- Immunogenicity [3]: +

Sequence: APRSLGLEL (HSP70_397R3L9 optimized peptide) [Hsp70397R3L9]
- Affinity for HLA-B*0702 (in words) [1]: strong affinity
- RA [1]: ++ (++ = RA < 1)
- Immunogenicity [3]: +
- Immunogenicity: specific CTL immune response (in words) [4]: induced an immune response in the majority of vaccinated mice
- Recognition of the native peptide by CTL generated with the optimized peptide (in words) [4]: recognized the optimized peptide but not the corresponding native peptide

Sequence: APRSPLAPL (Her-2/neu1069L9 optimized peptide derived from the cryptic peptide of SEQ ID NO2) [Her2/neu1069L9]
- Immunogenicity [2]: +
- RA [1]: ++ (++ = RA < 1)
- Immunogenicity [3]: +
- Corresponding native peptide cross-reconnaissance [4]: +

Sequence: APRSPLAPS (HER-2/neu1069 HLA-B*0702 restricted cryptic epitope) [Her2/neu1069]
- Immunogenicity: specific CTL immune response (in words) [4]: not immunogenic

Sequence: APRTKAEML (MAGE-121.1 A1R3 optimized peptide)
- RA [1]: + (+ = 1 < RA < 10)
- Immunogenicity [3]: +

Sequence: APRVSIRLPL (EphA2)
- RA [1]: ++ (++ = RA < 1)

Sequence: APVTKAEML (MAGE-121.1 A1 optimized peptide) [MAGE-121.1/A1]
- RA (relative affinity for HLA-B*0702) [1]: >10

Sequence: EPFTKAEML (MAGE-A121.2 antigen peptide)
- Affinity for HLA-B*0702 (in words) [1]: low affinity
- RA (relative affinity for HLA-B*0702) [1]: >10

Sequence: EPITKAEIL (MAGE-A121.4 antigen peptide)
- Affinity for HLA-B*0702 (in words) [1]: low affinity
- RA (relative affinity for HLA-B*0702) [1]: >10

Sequence: EPVTKAEML [MAGE-A121.1]
- Affinity for HLA-B*0702 (in words) [1]: low affinity
- RA (relative affinity for HLA-B*0702) [1]: >10

Sequence: GPKHSDCLA (HER-2/neu246 HLA-B*0702 restricted cryptic epitope) [Her2/neu246]
- Immunogenicity: specific CTL immune response (in words) [4]: not immunogenic

Sequence: SPKANKEIL (HER-2/neu760 HLA-B*0702 restricted cryptic epitope) [Her2/neu760]
- Immunogenicity: specific CTL immune response (in words) [4]: not immunogenic

Sequence: YPEEISSMVL (peptide of Hsp70_115) [Hsp70 115]
- Affinity for HLA-B*0702 (in words) [1]: low affinity; also recorded: non binders
- Immunogenicity: specific CTL immune response (in words) [4]: Only the high affinity TERT4 was immunogenic

Sequence: YPVTNAVITV (Hsp70 137(10) antigen peptide) [Hsp70 137 (10)]
- Affinity for HLA-B*0702 (in words) [1]: low affinity; also recorded: non binders
- Immunogenicity: specific CTL immune response (in words) [4]: Only the high affinity TERT4 was immunogenic
